From US20030119067A1, “PYK2 related products and methods” (Sugen, Inc., priority 1996, published 2003)

How the values were obtained:
Type in all cases: cell-based, rat
EGF receptor = test: Activation of EGF receptor in PC12 cells
Excerpt: (§1) Sadoshima & Izumo, EMBO J. 15:775-787 (1996); Wan et al., Nature 380:541-544 (1996). The EGF-receptor and erbB2 were also implicated in MAP kinase activation induced by LPA and other agonists of G-protein coupled receptors. Daub et al., Nature 379:557-564 (1996). We have tested whether LPA and bradykinin can activate Src and the EGF receptor in PC12 cells.

Src = Src kinase activity in PC12 cells; conditions: PC12 cells stimulated with LPA or bradykinin
Experimental: as §1
(§2) PC12 cells were left untreated (−) or stimulated with LPA (2.5 mM) or bradykinin (1 mM) for 3 min at 37° C. Src was immunoprecipitated and immunoblotted with antibodies against Src, anti-pY416^src antibodies or antibodies against PYK2.

PYK2 = test: Tyrosine phosphorylation of PYK2 in PC12 cells (immunoprecipitation, anti-phosphotyrosine immunoblot); conditions: PC12 cells, 37° C.
PYK2/Src complex = test: Association of PYK2 with activated Src in PC12 cells (co-immunoprecipitation); conditions: LPA 2.5 mM or bradykinin 1 mM, 3 min, 37° C.
Excerpt: We examined the possibility of association between the two protein tyrosine kinases PYK2 and Src in response to LPA or bradykinin stimulation. Lysates from stimulated or unstimulated cells were subjected to immunoprecipitation with antibodies against Src followed by immunoblotting with antibodies against PYK2, against Src or anti-pY416src antibodies that specifically recognize activated Src. Liu et al., Oncogene 8:1119-1126 (1993).
as §2

In the case of lysophosphatidic acid [LPA], the “activation of EGF receptor” value (EGF receptor) is reported as “unable to detect”, the “increase in Src kinase activity” value (Src) is reported as “approximately three to four” and the “tyrosine phosphorylation of PYK2” value (PYK2; LPA 2.5 mM or bradykinin 1 mM, 3 min) is reported as “rapid tyrosine phosphorylation of PYK2”. For the same substance, the “increase in the phosphorylation state of PYK2 relative to unstimulated cells” value (PYK2; LPA 2.5 mM, bradykinin 1 mM 3 min, PMA 1 mM 10 min) was 4 fold and the “complex formation of PYK2 with activated Src” value (PYK2/Src complex) was “forms a complex with activated Src”.
